Assay results as given in paper PMC7153278, “Discovery of Membrane-Bound Pyrophosphatase Inhibitors Derived from an Isoxazole Fragment” (ACS Medicinal Chemistry Letters, 2020).

Molecular target: Thermotoga maritima mPPase (TmPPase) (Thermotoga maritima, UniProt Q9S5X0)
Assay: TmPPase inhibition assay (96-well plate, orthophosphate determination)
Type: biochemical
Details: TmPPase; call rule not given here
Protocol: The inhibition assay was measured in 96 well plate assay as previously reported.5,6 Briefly, 1 µL of purified TmPPase (13 mg/mL) was reactivated in 99 µL of reactivation buffer (20 mM 2-(N-morpholino) ethanesulfonic acid (MES) pH 6.5, 3.5% (v/v) glycerol, 2 mM dithiothreitol (DTT), 4.5% dodecyl maltoside (DDM) and 12 mg/mL L-α-phosphatidylcholine from soybean) and incubated at 55 °C for 15 min. For the assay, to each tube strips, 0.2 µL of the reactivated enzyme was added to 14.8 µL of reaction buffer (200 mM Tris-Cl pH 8.0, 8.0 mM MgCl2, 333 mM KCl, and 67 mM NaCl) and 25 µL of inhibitor. The reaction mixtures were sealed with an adhesive sealing sheet (Thermo Scientific) and incubated at 71 °C for 5 min. The reactions were started with the addition of 10 µL of 2 mM sodium pyrophosphate, further incubation at 71 °C for 5 min and stopped by placing the reaction mixtures on ice for 10 min. The color development was done with the addition of ammonium heptamolybdate + ascorbic acid solution on ice for 10 min and then 90 µL of arsenic solution, at room temperature, for a minimum of 30 min. 180 µL of each reaction mixtures was then transferred into a clear 96 well polystyrene microplate and the absorbance was measured at 860 nm using a microplate spectrophotometer (MultiSkan Go, Thermo Scientific). The pilot inhibitor screening of 16 phosphate-mimicking fragments was done at 100 μM inhibitor concentration. Further screening was done with three different concentrations; 1 μM, 5 μM and 50 μM for soluble compounds, and 1 μM, 5 μM, and 20 μM for sparingly soluble compounds.6 The best hits were validated using 8 concentrations in triplicate in TmPPase.
The potent hits 12k and 12l compounds were then tested on the P. falciparum (PfPPase-VP1) membrane fractions expressed in baculovirus-infected insect cells (the expression method and further enzyme analysis will be described in more detail elsewhere). Briefly, to each tube strips, 2.4 µL of PfPPase-VP1 membrane fraction (5 mg/mL) was added into 12.6 µL of reaction buffer (200 mM Tris-Cl pH 8.0, 8.0 mM MgCl2, 333 mM KCl, 67 mM NaCl, 3.3 mM NaF, and 17 μM Gramicidin D) and 25 µL of inhibitor. The reaction mixtures were incubated at 30 °C for 5 min and the assay was started by the addition of 10 µL of 2 mM sodium pyrophosphate and further incubation at 30 °C for 10 min. The reaction termination and color development were done as before.
The in vitro anti-plasmodial activity assay strain 3D7 was maintained in culture as described previously.7 Briefly, parasites were cultured in O+ human erythrocytes at 5% haematocrit in RPMI - 1640 medium supplemented with 0.5% Albumax II (Gibco, Carlsbad, CA, USA), 200 μM hypoxanthine (Sigma, St. Louis, MO, USA) and 20 μg/mL gentamycin (Gibco). Parasites were synchronized with the sorbitol method as described. 8 Test compound was dissolved in DMSO to make a stock solution of 10 mM. Two -fold serial dilutions of the test compound were made in the culture medium to cover the range of 400 µM – 400 nM. Fifty microliters of each dilution were mixed in 96 well plate with 150 µL of 2% haematocrit of 0.5% parasitemia (ring stage). DMSO concentration in the highest compound concentration w as 0.1%. After 72 h incubation at 37 °C, the parasite growth was quantified using fluorescent SYBR Green I ® -based assay as described. 9 The half-maximal inhibitory concentration (IC 50) of the test compound was assessed using the non-linear regression fit model in Prism 7 (GraphPad Software). The potent anti-malarial drug, artemisinin, was use in parallel as a positive control. Each concentration of the test compound was tested in duplicate and the assay was repeated three times. The mean and standard deviation of the three repeats were used to estimate the IC50.
IC50 determinations were done using R 3.6.110 and the n-parameter logistic regression (nplr) package11 version 0.1-7. In this package, the weighted nplr, given x (compound concentrations) and […]

Chain of Thermotoga maritima mPPase (TmPPase) (Q9S5X0 whole entry): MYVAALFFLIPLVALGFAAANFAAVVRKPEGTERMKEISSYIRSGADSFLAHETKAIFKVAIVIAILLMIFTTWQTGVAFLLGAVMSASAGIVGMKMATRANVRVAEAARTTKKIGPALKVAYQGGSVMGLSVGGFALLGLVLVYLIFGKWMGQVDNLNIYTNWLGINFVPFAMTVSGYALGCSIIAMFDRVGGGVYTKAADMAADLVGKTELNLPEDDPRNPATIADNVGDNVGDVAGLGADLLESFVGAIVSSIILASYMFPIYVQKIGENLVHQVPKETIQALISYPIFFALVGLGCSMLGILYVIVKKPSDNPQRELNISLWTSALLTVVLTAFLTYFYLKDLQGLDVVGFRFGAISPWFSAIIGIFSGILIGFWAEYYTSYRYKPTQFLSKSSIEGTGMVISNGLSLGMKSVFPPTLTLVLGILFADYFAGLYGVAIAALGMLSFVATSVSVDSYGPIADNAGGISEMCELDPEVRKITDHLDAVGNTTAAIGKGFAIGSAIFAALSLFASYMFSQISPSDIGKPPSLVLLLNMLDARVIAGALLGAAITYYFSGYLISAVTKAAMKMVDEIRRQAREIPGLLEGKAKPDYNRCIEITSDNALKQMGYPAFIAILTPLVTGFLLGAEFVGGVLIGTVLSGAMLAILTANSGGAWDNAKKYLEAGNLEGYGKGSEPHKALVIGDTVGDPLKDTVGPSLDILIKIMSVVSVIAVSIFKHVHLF

Compound	biological activity (in words)
Cc1cc(C)cc(-c2cc(C(=O)Nc3ccccc3Br)no2)c1 [Compound 28]	inactive
O=C(O)c1cc(-c2cc(C(F)(F)F)cc(C(F)(F)F)c2)on1 [Compound 11m]	did not lead to the desired activity
O=C(O)c1cc(-c2cccc(-c3cc(C(=O)O)no3)c2)on1 [Compound 11n]	neither the carboxylic acid 11n nor the ester 10n were notably active
CCOC(=O)c1cc(-c2cccc(-c3cc(C(=O)OCC)no3)c2)on1 [Compound 10n]	neither the carboxylic acid 11n nor the ester 10n were notably active
Cc1c(-c2cc(C(=O)O)no2)cnn1C [Compound 6]	lacked biological activity

Same assay, conditions: computed using the pIC50 and the Heavy Atom Count (LEHA) normalization method, Discovery Studio

Compound	LE (ligand efficiency)
Cc1cc(C)cc(-c2cc(C(=O)Oc3ccccc3Br)no2)c1 [Compound 12k]	0.22
Cc1nc(-c2cc(C(=O)O)no2)cs1 [Compound 5]	0.34

Same assay, conditions: purified TmPPase; 95% confidence interval in square brackets

Compound	IC50 [CI95%]
CCOC(=O)c1cc(-c2ccc(OC)c(S(=O)(=O)NC3CCCC3)c2)on1 [SI-26]	Inactive
CCOC(=O)c1cc(-c2ccc(OC)c(S(=O)(=O)Nc3cccc(Cl)c3)c2)on1 [SI-30]	Inactive
O=C(O)CN1C(=O)c2ccccc2S1(=O)=O [SI-9]	Inactive
CCOC(=O)c1cc(-c2ccc(OC)cc2)on1 [Compound 10g]	Inactive
CCOC(=O)c1cc(-c2cccc(OC)c2)on1 [Compound 10f]	Inactive
CCOC(=O)c1cc(-c2cccc(C(=O)OC)c2)on1 [Compound 10c]	Inactive
CS(=O)(=O)Nc1ccc(C#N)cc1 [SI-12]	Inactive
O=C1CS(=O)(=O)c2ccccc21 [SI-7]	Inactive
O=C(O)c1cc(-c2ccc([N+](=O)[O-])cc2)[nH]n1 [Compound 22]	Inactive
CC(C)(C)c1cc(C(=O)Nc2ccccc2C(=O)O)cc(C(C)(C)C)c1 [SI-47]	Inactive
CCOC(=O)c1cc(-c2ccc(OC)c(S(=O)(=O)N3CCCC3)c2)on1 [SI-27]	Inactive
O=C(O)c1ccc2c(c1)S(=O)(=O)NC2=O [SI-6]	Inactive
CCOC(=O)c1cc(-c2ccc(C(=O)OC)cc2)on1 [Compound 10d]	Inactive
Nc1ccc(S(=O)(=O)NC2=NCCS2)cc1 [SI-2]	Inactive
CC(C)(C)c1cc(CC(=O)O)cc(C(C)(C)C)c1 [SI-42]	Inactive
CCOC(=O)c1cc(-c2csc(Nc3ccccc3)n2)on1 [SI-16]	Inactive
CCOC(=O)c1cc(-c2ccc(OC)c(S(=O)(=O)N3CCc4ccccc43)c2)on1 [SI-25]	Inactive
CCOC(=O)c1cc(-c2ccccc2OC)on1 [Compound 10e]	Inactive
CC(C)(C)c1cc(CN)cc(C(C)(C)C)c1 [SI-45]	Inactive
Cc1c(-c2cc(C(=O)O)no2)cnn1C [Compound 6]	Inactive

System: not listed separately
Assay: Colloidal aggregation under TmPPase assay conditions (nephelometry)
Type: physicochemical
Details: 50, 25, 10, 5 and 1 µM; room temperature
Protocol: Aggregation data for 5, 12k and 12l (Figure S1)
Potential colloidal aggregation in the TmPPase model system was studied at five concentrations (50 µM, 25 µM, 10 µM, 5 µM, and 1 µM). The original assay conditions were simulated, and the light scattering of potential aggregates in the mixture was studied by nephelometric methods using Nepheloskan Ascent® (Labsystems, Finland). Aggregation of the blank and compounds 5, 12k and 12l were measured as triplicates from one independent experiment at three different voltages (300 V, 400 V and 500 V) at room temperature.
5 µM and 1 µM concentrations the obtained values were close to those observed by the blank, thereby […]
Figure S1. Aggregation data for compounds 5, 12k and 12l. The data, measured in relative nephelometric units (RNU), is shown as the mean ± SD and normalized to the blank.
(1 picture or pasted object on this page, not shown here)
Experimental procedures and characterization data
Commercial analogues were retrieved by screening the ZINC12 database1 (clean drug-like subset; downloaded on 27.04.2016) using a KNIME2 workflow connected to the RDKit3 nodes. The SAR analyses and docking studies (data not shown) underlying this work were conducted using the Schrödinger molecular modeling platform (Canvas and Glide modules, respectively)4 .
Compounds 1–7, 13–20 and 24 were obtained from commercial suppliers. Supporting Information, Table S1 summarizes the compounds tested. Compound purity was >95% as determined by LC-MS and characterized by HRMS. For all commercial compounds after the initial screen, purity was tested independently from the vendor specification (a few compounds of lower purity are reported only in Supporting Information). To evaluate potential aggregation of samples in the TmPPase based assay, aggregate formation in the assay conditions was studied at five concentrations (50 μM, 25 μM, 10 μM, 5 μM, and 1 μM) for compounds 5, 12k and 12l (Figure S1).
All chemicals used were commercially available. Reactions using anhydrous conditions were conducted in oven-dried (130 °C, >24 h) glassware, purged with argon prior to use. Microwave reactions were performed using a Biotage Initiator+ instrument (Uppsala, Sweden). The progress of the reactions was monitored by thin-layer chromatography on silica gel 60-F254 aluminum plates and visualized by using a dual short/long wave (254/366 nm) UV lamp. The combined organic solutions from extractions were dried over anhydrous Na2SO4, filtered and concentrated with a rotary evaporator at reduced pressure. Flash SiO2 column chromatography was performed with automated high performance flash chromatography, Biotage Isolera™ Spektra Systems with ACI™ and Assist (ISO-1SW Isolera One) equipped with a variable UV-VIS (200–800 nm) photodiode array (Uppsala, Sweden) using SNAP KP-SIL/Ultra 10 g or 25 g cartridges and the indicated mobile phase gradient.
The reactions were not optimized and all the yields are given for purified products.
Characterization of the synthesized products were done by NMR and MS analysis. 1H and 13C NMR spectra were acquired at 298 K on a Bruker Ascend 400 MHz – Avance III HD NMR spectrometer (Bruker Corporation, Billerica, MA, USA). Chemical shifts (δ) are reported in parts per million (ppm) relative to the residual solvent signals: CDCl3 7.26 and 77.16 ppm, CD3OD 3.31 and 49.00 ppm, DMSO-d6 2.50 and 39.52 ppm for 1H and 13C NMR, respectively. […] High resolution mass (HRMS-ESI) data was reported for the calculated and experimentally […]

Compound	aggregation (light scattering)
Cc1nc(-c2cc(C(=O)O)no2)cs1 [Compound 5]	no detectable aggregation at all

Same assay, conditions: at 10 µM, 5 µM and 1 µM

Compound	aggregation (light scattering)
Cc1cc(C)cc(-c2cc(C(=O)Oc3ccccc3Br)no2)c1 [Compound 12k]	only minor/no detectable aggregation

Same assay, conditions: at 50 µM and 25 µM

Compound	aggregation (light scattering)
Cc1cc(C)cc(-c2cc(C(=O)Oc3ccccc3Br)no2)c1 [Compound 12k]	showed aggregate formation
